# Literature values as cited in US20150118313A1, “ENHANCED FOLIC ACID FLUORESCENT MATERIAL, MULTIFLUORESCENT POROUS COMPOSITIONS OF MATTER AND POTENTIAL APPLICATIONS THEREOF” (Nanologica AB, priority 2010, published 2015).
# Entries after “also recorded” stand apart in the source; their conditions may differ.
# Tests used:
# [1] = weak acid, neutralized in the range of pH 5-7
# [2] = aqueous solvent; solubility is dependent on pH
SMILES,pKa [1],solubility in aqueous solution [2]
"O=C(O)c1ccc(-c2c3nc(c(-c4ccc(C(=O)O)cc4)c4ccc([nH]4)c(-c4ccc(C(=O)O)cc4)c4nc(c(-c5ccc(C(=O)O)cc5)c5ccc2[nH]5)C=C4)C=C3)cc1 [TCPP, Meso-tetrakis (4-carboxyphenyl) porphyrin]",6.6,scarcely soluble; also recorded: poor solubility
Nc1nc2ncc(CNc3ccc(C(=O)N[C@@H](CCC(=O)O)C(=O)O)cc3)nc2c(=O)[nH]1 [folic acid],,poor solubility
